Results published in ChEMBL document CHEMBL1250510, “2,3-diarylxanthones as strong scavengers of reactive oxygen and nitrogen species: a structure-activity relationship study” (Bioorg Med Chem, 2010).
Activity calls are given as the source filed them. The rule behind the calls is not given here.

How the values were obtained:
Type in all cases: functional
[1] = Antioxidant activity assessed as hypocholrous acid scavenging activity by spectrophotometry
[2] = Antioxidant activity assessed as singlet oxygen scavenging activity at 100 uM by spectrophotometry
[3] = Antioxidant activity assessed as peroxynitrite scavenging activity at 50 uM by spectrophotometry in absence of NaHCO3
[4] = Antioxidant activity assessed as peroxynitrite scavenging activity at 50 uM by spectrophotometry in presence of NaHCO3
[5] = Antioxidant activity assessed as hydrogen peroxide scavenging activity at 125 uM by spectrophotometry
[6] = Antioxidant activity assessed as peroxyl radical scavenging activity assessed as trolox equivalent at 1 uM by spectrophotometry
[7] = Antioxidant activity assessed as superoxide radical scavenging activity at 25 uM by spectrophotometry
[8] = Antioxidant activity assessed as nitric oxide scavenging activity at 200 uM by spectrophotometry
[9] = Antioxidant activity assessed as peroxyl radical scavenging activity assessed as trolox equivalent by spectrophotometry
[10] = Antioxidant activity assessed as hydrogen peroxide scavenging activity by spectrophotometry
[11] = Antioxidant activity assessed as peroxynitrite scavenging activity by spectrophotometry in presence of NaHCO3
[12] = Antioxidant activity assessed as peroxynitrite scavenging activity by spectrophotometry in absence of NaHCO3
[13] = Antioxidant activity assessed as nitric oxide scavenging activity by spectrophotometry
[14] = Antioxidant activity assessed as superoxide radical scavenging activity at 200 uM by spectrophotometry
[15] = Antioxidant activity assessed as superoxide radical scavenging activity by spectrophotometry
[16] = Antioxidant activity assessed as hydrogen peroxide scavenging activity at 250 uM by spectrophotometry
[17] = Antioxidant activity assessed as singlet oxygen scavenging activity by spectrophotometry

IC50 [1] [nM]	IC50 [11] [nM]	IC50 [2] [nM]	IC50 [12] [nM]	IC50 [13] [nM]	IC50 [15] [nM]	SMILES	trolox equivalent [9]	inhibition [16] [%]	further results
155000						O=c1c2ccccc2oc2cc(-c3ccccc3)c(-c3ccccc3)cc12			inhibition [2]: 27%; inhibition [3]: 48%; inhibition [4]: 29%; inhibition [5]: inactive; inhibition [6]: inactive; inhibition [7]: inactive; inhibition [8]: 39%
14700	260	3300	780	420	20300	O=c1c2ccccc2oc2cc(-c3ccc(O)cc3)c(-c3ccc(O)c(O)c3)cc12	0.88	14	
53800	2660	68800	2000			O=c1c2ccccc2oc2cc(-c3ccc(O)cc3)c(-c3ccccc3)cc12	2.08		inhibition [5]: inactive; inhibition [14]: inactive; inhibition [8]: 41%
					273000	O=S(=O)(O)c1cc(O)c(O)c(S(=O)(=O)O)c1 [TIRON]			
7500	220	6800	890	620	31300	O=c1c2ccccc2oc2cc(-c3ccc(O)c(O)c3)c(-c3ccc(O)cc3)cc12	0.83	12	
15700	400	6000	540	1880	28100	O=c1c2ccccc2oc2cc(-c3ccccc3)c(-c3ccc(O)c(O)c3)cc12	0.76	9	
10800	370	4500	670	1220	76000	O=c1c2ccccc2oc2cc(-c3ccc(O)c(O)c3)c(-c3ccccc3)cc12	0.84	9	

The remaining lines, values behind:

SMILES	IC50 [1] [nM]	IC50 [11] [nM]	IC50 [2] [nM]	IC50 [12] [nM]	IC50 [13] [nM]	IC50 [15] [nM]	trolox equivalent [9]	inhibition [16] [%]	further results
O=C(O)CCCC[C@@H](S)CCS [DIHYDROLIPOIC ACID]	2300								
O=C1O[C@H]([C@@H](O)CO)C(O)=C1O [ASCORBIC ACID]									IC50 [9]: 220 nM; IC50 [10]: 602000 nM
O=c1c2ccccc2oc2cc(-c3ccccc3)c(-c3ccc(O)cc3)cc12	72100	1550	80000	1800	175000		1.05		inhibition [5]: inactive; inhibition [14]: inactive
O=c1c(O)c(-c2ccc(O)c(O)c2)oc2cc(O)cc(O)c12 [QUERCETIN]									IC50 [17]: 1800 nM
O=c1c2ccccc2oc2cc(-c3ccc(O)c(O)c3)c(-c3ccc(O)c(O)c3)cc12	1200	170	2500	330	390	10400	0.28	17	
O=c1c2ccccc2[se]n1-c1ccccc1 [EBSELEN]		500		2010					
O=c1c2ccccc2oc2cc(-c3ccc(O)cc3)c(-c3ccc(O)cc3)cc12	22400	1720	58400	970	108000	166000	2.88		inhibition [5]: inactive
C[C@@H]1O[C@@H](OC[C@H]2O[C@@H](Oc3c(-c4ccc(O)c(O)c4)oc4cc(O)cc(O)c4c3=O)[C@H](O)[C@@H](O)[C@@H]2O)[C@H](O)[C@H](O)[C@H]1O [RUTIN]					2530				
